Experimental data from patent US20260001928A1 (CORTERIA PHARMACEUTICALS, priority 2022, published 2026).
*1 amine or outer side, *2 acyl side, *3 side chain or, on linkers, in order; H or OH if unused. Where a SMILES comes first, the peptide text is derived from it. Side-chain parts run from the residue outwards. [ ]: non-standard residue; d: D form. The star is where a group is joined. C18 diacid = O=C(O)CCCCCCCCCCCCCCCCC(=O)*; γGlu = O=C(O)[C@H](CCC(=O)[*:2])N[*:1]; NMeI = CC[C@H](C)[C@H](NC)C(=O)O; Pentanoyl = CCCCC(=O)*; AEEA = NCCOCCOCC(=O)O; Aib = CC(C)(N)C(=O)O

Target: T1, CFR1R receptor (Homo sapiens, UniProt P34998)
T1 construct: host or cells: CHO-K1 (clone 2)
T1 sequence (P34998 24-415): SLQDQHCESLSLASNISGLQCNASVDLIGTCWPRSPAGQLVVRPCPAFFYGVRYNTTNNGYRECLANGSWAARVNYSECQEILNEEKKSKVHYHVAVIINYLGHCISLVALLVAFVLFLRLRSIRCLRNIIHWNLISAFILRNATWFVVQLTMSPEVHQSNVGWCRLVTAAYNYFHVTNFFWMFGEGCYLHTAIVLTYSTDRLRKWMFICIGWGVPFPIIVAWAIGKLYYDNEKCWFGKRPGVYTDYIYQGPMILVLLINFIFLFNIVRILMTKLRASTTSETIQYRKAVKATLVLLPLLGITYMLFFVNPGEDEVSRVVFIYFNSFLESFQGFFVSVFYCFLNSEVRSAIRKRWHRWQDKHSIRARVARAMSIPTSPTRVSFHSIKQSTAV
Assay: Activity at anti-target CFR1R receptor, cAMP assay in CRF1R-overexpression CHO-K1 cells
Format: cell-based
Settings: 100% = Sauvagine at 100 nM
Method: Assessment of activity at anti-target CFR1R receptor is done using the same procedure as the one described for the TeloHEAC cell line. The CRF1R-overexpression CHO-K1 cell line clone 2 was purchased from PerkinElmer. Cells were grown in a 10 cm dish at 37° C./5% CO2 in medium (F12 (Hams)/10% FBS/400 μg/ml G418) to near confluence. At that stage, cells were harvested, resuspended to 10 million/mL in culture medium without G418 and with 10% DMSO. 1 mL vial aliquots were slowly frozen to −80° C. in isopropanol and then transferred in liquid nitrogen for storage. These vials were used to run the experiment following the procedure reported in the previous paragraph, except for the compound used in the control well to define the 100% activation (Sauvagine at 100 nM) and the cell density (final cell density: 4000 cells/well)

## CC[C@H](C)[C@H](NC)C(=O)N[C@H](C(=O)N[C@@H](CC(C)C)C(=O)N[C@@H](CO)C(=O)N[C@@H](CC(C)C)C(=O)N[C@@H](CC(=O)O)C(=O)N[C@@H](C(=O)N1CCC[C@H]1C(=O)N[C@H](C(=O)N[C@@H](CCCCN)C(=O)N[C@@H](CC(C)C)C(=O)N[C@@H](CCCCNC(=O)CC[C@H](NC(=O)CCCCCCCCCCCCCCCCC(=O)O)C(=O)O)C(=O)N[C@@H](CCCCN)C(=O)N[C@H](C(=O)N[C@@H](CC(C)C)C(=O)N[C@@H](CC(C)C)C(=O)N[C@@H](CCC(=O)O)C(=O)N[C@@H](CCC(N)=O)C(=O)N[C@@H](CCC(=O)O)C(=O)N[C@@H](CCCCN)C(=O)N[C@@H](CCC(N)=O)C(=O)N[C@@H](CCCCN)C(=O)N[C@@H](CCCCN)C(=O)N[C@@H](CCC(N)=O)C(=O)N[C@@H](CCCNC(=N)N)C(=O)N[C@@H](CCC(=O)O)C(=O)N[C@@H](CCC(N)=O)C(=O)N[C@@H](C)C(=O)N[C@@H](CCC(=O)O)C(=O)N[C@H](C(=O)N[C@@H](CC(N)=O)C(=O)N[C@@H](CCC(=O)O)C(=O)N[C@@H](CCC(N)=O)C(=O)N[C@H](C(=O)N[C@@H](CC(C)C)C(=O)N[C@@H](C)C(=O)N[C@@H](CCC(N)=O)C(=O)N[C@H](C(N)=O)C(C)C)[C@@H](C)CC)[C@@H](C)O)[C@@H](C)CC)[C@@H](C)CC)C(C)C)C(C)C [SEQ ID No. 142, reference compound] (H-[NMeI]VLSLD[dV]PIKLK([γGlu-C18 diacid])KILLEQEKQKKQREQAETNEQILAQV-NH2)
Listed as 14
  Emax (% I): 24 % I

## CCCCC(=O)N[C@H](C(=O)N[C@@H](CC(C)C)C(=O)N[C@@H](CO)C(=O)N[C@@H](CC(C)C)C(=O)N[C@@H](CC(=O)O)C(=O)N[C@@H](C(=O)N1CCC[C@H]1C(=O)N[C@H](C(=O)N[C@@H](CCCCN)C(=O)N[C@@H](CC(C)C)C(=O)N[C@@H](CCCCNC(=O)COCCOCCNC(=O)COCCOCCNC(=O)CC[C@H](NC(=O)CC[C@H](NC(=O)CCCCCCCCCCCCCCCCC(=O)O)C(=O)O)C(=O)O)C(=O)N[C@@H](CCC(N)=O)C(=O)NC(C)(C)C(=O)N[C@@H](CC(C)C)C(=O)N[C@@H](CC(C)C)C(=O)N[C@@H](CCCCN)C(=O)N[C@@H](CCC(N)=O)C(=O)N[C@@H](CCC(=O)O)C(=O)N[C@@H](CCCNC(=N)N)C(=O)N[C@@H](CCC(N)=O)C(=O)N[C@@H](CCCCN)C(=O)N[C@@H](CCCCN)C(=O)N[C@@H](CCC(N)=O)C(=O)N[C@@H](CCCNC(=N)N)C(=O)N[C@@H](CCC(=O)O)C(=O)N[C@@H](CCC(N)=O)C(=O)N[C@@H](C)C(=O)N[C@@H](CCC(=O)O)C(=O)N[C@@H](CCCCN)C(=O)N[C@@H](CC(N)=O)C(=O)N[C@H](C(=O)N[C@@H](CCC(N)=O)C(=O)N[C@H](C(=O)N[C@@H](CC(C)C)C(=O)N[C@@H](CCC(=O)O)C(=O)N[C@@H](CCC(N)=O)C(=O)N[C@H](C(N)=O)C(C)C)[C@@H](C)CC)C(C)C)[C@@H](C)CC)C(C)C)C(C)C [compound 29] (Pentanoyl-VLSLD[dV]PIKLK([AEEA-AEEA-γGlu-γGlu-C18 diacid])Q[Aib]LLKQERQKKQREQAEKNVQILEQV-NH2)
  Emax (% I): 6 % I
